Data: patent US20250333424A1, “ANTIVIRAL COMPOUNDS” (Gilead Sciences, Inc., priority 2024, published 2025)

test system: monocytic THP1 cells infected with HIV VSV-G pseudotyped GFP-NEF reporter virus; experiment: cells; format: cell-based; conditions: Human immunodeficiency virus 1, THP-1, 24 h

Q: `Cc1cc(/C=C/C#N)cc(C)c1C(O)c1nc(NC23CC(C#N)(C2)C3)nc2nn(C)cc12` (stereo not drawn) [Compound 276, (E)-3-((4-((4-(2-cyanovinyl)-2,6-dimethylphenyl)(hydroxy)methyl)-2-methyl-2H-pyrazolo[3,4-d]pyrimidin-6-yl)amino)bicyclo[1.1.1]pentane-1-carbonitrile] was tested. Which EC50 did it give?
A: 194 nM

Q: For `Cc1cc(/C=C/C#N)cc(C)c1Oc1nc(NC23CC(C#N)(C2)C3)nc2[nH]c(C)c(C)c12` [Compound 303, (E)-3-((4-(4-(2-cyanovinyl)-2,6-dimethylphenoxy)-5,6-dimethyl-7H-pyrrolo[2,3-d]pyrimidin-2-yl)amino)bicyclo[1.1.1]pentane-1-carbonitrile], which EC50 is on record?
A: 232 nM

Q: Which EC50 does the source give for `CNC(=O)Cn1nc(C)c2c(Oc3c(C)cc(/C=C/C#N)cc3C)nc(NC34CC(C#N)(C3)C4)nc21` [Compound 99, (E)-2-(6-((3-cyanobicyclo[1.1.1]pentan-1-yl)amino)-4-(4-(2-cyanovinyl)-2,6-dimethylphenoxy)-3-methyl-1H-pyrazolo[3,4-d]pyrimidin-1-yl)-N-methylacetamide] here?
A: 37.1 nM

Q: How did the EC50 turn out when `CCOc1cc(/C=C/C#N)cc(Cl)c1Oc1nc(NC23CC(C#N)(C2)C3)nc2[nH]nc(C)c12` [Compound 3, (E)-3-((4-(2-chloro-4-(2-cyanovinyl)-6-ethoxyphenoxy)-3-methyl-11H-pyrazolo[3,4-d]pyrimidin-6-yl)amino)bicyclo[1.1.1]pentane-1-carbonitrile] was run?
A: 29.6 nM

Q: `Cc1cc([C@H]2C[C@@H]2C#N)cc(C)c1Oc1nc(NC23CC(C#N)(C2)C3)nc2nn(C)cc12` (single isomer, unassigned) [Compound 133] was tested. Which EC50 did it give?
A: 511 nM

Q: Which EC50 does the source give for `Cc1cc(/C=C/C#N)cc(C)c1Cc1nc(NC23CC(C#N)(C2)C3)nc2nn(C)cc12` [Compound 277, (E)-3-((4-(4-(2-cyanovinyl)-2,6-dimethylbenzyl)-2-methyl-2H-pyrazolo[3,4-d]pyrimidin-6-yl)amino)bicyclo[1.1.1]pentane-1-carbonitrile] here?
A: 49.9 nM

Q: For `Cc1cc(/C=C/C#N)cc(C)c1Oc1nc(NC23CC(C#N)(C2)C3)nc2nn(CC(F)F)cc12` [Example 234, (E)-3-((4-(4-(2-cyanovinyl)-2,6-dimethylphenoxy)-2-(2,2-difluoroethyl)-2H-pyrazolo[3,4-d]pyrimidin-6-yl)amino)bicyclo[1.1.1]pentane-1-carbonitrile], which EC50 is on record?
A: 332 nM

Q: With `CNC(=O)CCn1nc(C)c2c(Oc3c(C)cc(/C=C/C#N)cc3C)nc(NC34CC(C#N)(C3)C4)nc21` [Compound 101, (E)-3-(6-((3-cyanobicyclo[1.1.1]pentan-1-yl)amino)-4-(4-(2-cyanovinyl)-2,6-dimethylphenoxy)-3-methyl-1H-pyrazolo[3,4-d]pyrimidin-1-yl)-N-methylpropanamide] as the compound, how does the EC50 read?
A: 59.6 nM

Q: `Cc1cc(/C=C/C#N)cc(C)c1Oc1nc(NC23CC(C#N)(C2)C3)nc2nn(CC(F)F)c(C)c12` [Compound 83, (E)-3-((4-(4-(2-cyanovinyl)-2,6-dimethylphenoxy)-2-(2,2-difluoroethyl)-3-methyl-2H-pyrazolo[3,4-d]pyrimidin-6-yl)amino)bicyclo[11.1.1]pentane-1-carbonitrile] was tested. Which EC50 did it give?
A: 162 nM

Q: With `Cc1cc(/C=C/C#N)cc(C)c1Oc1nc(NC23CC(C#N)(C2)C3)nc2nc(C3CCC(F)(F)CC3)[nH]c12` [Compound 54, (E)-3-((6-(4-(2-cyanovinyl)-2,6-dimethylphenoxy)-8-(4,4-difluorocyclohexyl)-7H-purin-2-yl)amino)bicyclo[1.1.1]pentane-1-carbonitrile] as the compound, how does the EC50 read?
A: 364 nM

Q: How did the EC50 turn out when `Cc1cc(/C=C/C#N)cc(C)c1Oc1nc(NC23CC(C#N)(C2)C3)nc2nc3n(c12)C[C@@H](O)CO3` (single isomer, unassigned) [Compound 193] was run?
A: 319 nM

Q: For `Cc1cc(/C=C/C#N)cc(C)c1Oc1nc(NC23CC(C#N)(C2)C3)nc2c1/C(=C/F)NC2=O` [Compound 266, 3-(((Z)-4-(4-((E)-2-cyanovinyl)-2,6-dimethylphenoxy)-5-(fluoromethylene)-7-oxo-6,7-dihydro-5H-pyrrolo[3,4-d]pyrimidin-2-yl)amino)bicyclo[1.1.1]pentane-1-carbonitrile], which EC50 is on record?
A: 61 nM
